From the kinase profiling compilation of Christmann-Franck et al. (2016)

Tests used:
Assay in all cases: radiometric filter-binding kinase assay
MAP2K6 (human) = MAP2K6 (human) (UniProt P52564)
MARK2 (human) = MARK2 (human) (UniProt Q7KZI7)
MAP3K9 (human) = MAP3K9 (human) (UniProt P80192)
EEF2K (human) = EEF2K (human) (UniProt O00418)
PRKCZ (human) = PRKCZ (human) (UniProt Q05513)
AURKA (human) = AURKA (human) (UniProt O14965)
NTRK1 (human) = NTRK1 (human) (UniProt P04629)
BRSK1 (human) = BRSK1 (human) (UniProt Q8TDC3)
NUAK1 (human) = NUAK1 (human) (UniProt O60285)
IRAK4 (human) = IRAK4 (human) (UniProt Q9NWZ3); settings: compound 0.1 µM
MAPK12 (human) = MAPK12 (human) (UniProt P53778)
DYRK2 (human) = DYRK2 (human) (UniProt Q92630)
MAPKAPK2 (human) = MAPKAPK2 (human) (UniProt P49137)
EPHB3 (human) = EPHB3 (human) (UniProt P54753)
MAPK9 (human) = MAPK9 (human) (UniProt P45984)
PAK6 (human) = PAK6 (human) (UniProt Q9NQU5)
PAK4 (human) = PAK4 (human) (UniProt O96013)
MAP2K2 (human) = MAP2K2 (human) (UniProt P36507)
MAP3K1 (human) = MAP3K1 (human) (UniProt Q13233)
MARK1 (human) = MARK1 (human) (UniProt Q9P0L2); settings: compound 10.0 µM
[1] = target: STK11 CAB39 STRADA (human) (UniProt Q9Y376+Q7RTN6+Q15831)
MARK4 (human) = MARK4 (human) (UniProt Q96L34)
MAP3K7 TAB1 (human) = MAP3K7 TAB1 (human) (UniProt Q15750+O43318)
[2] = test system: AKT1 (human), P31749 [S473D]
PKN2 (human) = PKN2 (human) (UniProt Q16513)
PIM1 (human) = PIM1 (human) (UniProt P11309)
MAP3K5 (human) = MAP3K5 (human) (UniProt Q99683)
GSK3B (human) = GSK3B (human) (UniProt P49841)
PRKCA (human) = PRKCA (human) (UniProt P17252)
MAP3K11 (human) = MAP3K11 (human) (UniProt Q16584)
INSR (human) = INSR (human) (UniProt P06213)
MST4 (human) = MST4 (human) (UniProt Q9P289)
ERBB4 (human) = ERBB4 (human) (UniProt Q15303)
HIPK3 (human) = HIPK3 (human) (UniProt Q9H422)
EPHA2 (human) = EPHA2 (human) (UniProt P29317)
MELK (human) = MELK (human) (UniProt Q14680)

INSR (human), sequence (P06213 whole entry, looked up): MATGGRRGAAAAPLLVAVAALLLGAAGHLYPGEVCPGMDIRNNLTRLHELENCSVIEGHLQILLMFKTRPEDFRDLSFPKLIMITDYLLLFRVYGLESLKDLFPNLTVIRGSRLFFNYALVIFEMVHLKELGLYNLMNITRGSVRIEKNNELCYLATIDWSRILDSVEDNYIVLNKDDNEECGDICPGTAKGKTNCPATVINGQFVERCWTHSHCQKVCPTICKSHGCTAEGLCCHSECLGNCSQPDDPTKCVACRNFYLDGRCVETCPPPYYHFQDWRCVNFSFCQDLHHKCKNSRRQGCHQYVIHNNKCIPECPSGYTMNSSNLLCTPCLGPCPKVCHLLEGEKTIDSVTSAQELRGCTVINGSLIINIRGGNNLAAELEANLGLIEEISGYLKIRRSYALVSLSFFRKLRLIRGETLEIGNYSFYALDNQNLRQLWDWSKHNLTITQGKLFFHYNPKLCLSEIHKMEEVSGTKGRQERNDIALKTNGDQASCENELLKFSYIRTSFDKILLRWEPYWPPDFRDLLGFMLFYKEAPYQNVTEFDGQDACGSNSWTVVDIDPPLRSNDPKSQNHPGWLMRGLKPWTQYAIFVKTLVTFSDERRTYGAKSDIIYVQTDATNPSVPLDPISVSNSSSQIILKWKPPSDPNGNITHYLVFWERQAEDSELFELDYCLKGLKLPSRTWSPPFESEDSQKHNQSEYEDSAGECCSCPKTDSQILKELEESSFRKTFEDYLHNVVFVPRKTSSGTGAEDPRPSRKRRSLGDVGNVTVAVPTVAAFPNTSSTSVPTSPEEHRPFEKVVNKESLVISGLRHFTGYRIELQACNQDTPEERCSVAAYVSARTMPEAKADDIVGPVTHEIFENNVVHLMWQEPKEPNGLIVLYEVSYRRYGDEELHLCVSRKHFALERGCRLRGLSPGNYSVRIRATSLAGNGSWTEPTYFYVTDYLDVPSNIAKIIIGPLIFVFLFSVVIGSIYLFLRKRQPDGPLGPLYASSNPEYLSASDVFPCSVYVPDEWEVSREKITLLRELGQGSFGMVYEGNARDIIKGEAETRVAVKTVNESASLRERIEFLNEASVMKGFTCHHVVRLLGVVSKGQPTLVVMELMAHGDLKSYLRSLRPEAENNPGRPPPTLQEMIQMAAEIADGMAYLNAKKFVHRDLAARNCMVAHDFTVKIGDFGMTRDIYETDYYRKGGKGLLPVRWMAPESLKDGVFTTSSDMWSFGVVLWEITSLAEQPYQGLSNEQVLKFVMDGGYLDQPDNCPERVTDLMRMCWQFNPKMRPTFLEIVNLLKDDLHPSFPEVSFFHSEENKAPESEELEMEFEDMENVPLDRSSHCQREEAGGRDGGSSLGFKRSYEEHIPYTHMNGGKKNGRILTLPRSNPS
PIM1 (human), sequence (P11309 whole entry, looked up): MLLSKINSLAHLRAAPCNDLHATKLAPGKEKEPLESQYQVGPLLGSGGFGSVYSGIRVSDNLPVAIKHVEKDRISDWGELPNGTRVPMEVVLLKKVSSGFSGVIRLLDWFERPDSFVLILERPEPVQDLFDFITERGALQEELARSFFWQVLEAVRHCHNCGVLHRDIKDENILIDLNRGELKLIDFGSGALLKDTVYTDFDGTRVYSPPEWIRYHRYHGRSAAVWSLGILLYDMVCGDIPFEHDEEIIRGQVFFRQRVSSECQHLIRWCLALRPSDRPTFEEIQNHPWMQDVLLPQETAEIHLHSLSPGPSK
PRKCZ (human), sequence (Q05513 whole entry, looked up): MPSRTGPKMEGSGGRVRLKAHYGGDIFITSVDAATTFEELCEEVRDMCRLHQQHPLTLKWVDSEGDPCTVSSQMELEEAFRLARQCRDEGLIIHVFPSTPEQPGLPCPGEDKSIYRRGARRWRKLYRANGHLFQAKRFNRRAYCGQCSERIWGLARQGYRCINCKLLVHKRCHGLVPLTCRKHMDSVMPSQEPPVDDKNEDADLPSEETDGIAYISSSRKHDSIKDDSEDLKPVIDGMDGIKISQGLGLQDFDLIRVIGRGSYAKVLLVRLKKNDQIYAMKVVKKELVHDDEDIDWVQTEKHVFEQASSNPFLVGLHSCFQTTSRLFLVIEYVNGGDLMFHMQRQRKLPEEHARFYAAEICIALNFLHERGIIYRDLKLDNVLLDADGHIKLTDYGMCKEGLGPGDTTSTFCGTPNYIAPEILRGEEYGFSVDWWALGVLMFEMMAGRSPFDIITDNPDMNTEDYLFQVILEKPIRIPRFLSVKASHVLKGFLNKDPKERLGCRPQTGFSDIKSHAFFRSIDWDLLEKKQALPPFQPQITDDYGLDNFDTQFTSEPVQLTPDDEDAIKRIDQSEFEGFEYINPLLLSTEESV
PAK6 (human), sequence (Q9NQU5 whole entry, looked up): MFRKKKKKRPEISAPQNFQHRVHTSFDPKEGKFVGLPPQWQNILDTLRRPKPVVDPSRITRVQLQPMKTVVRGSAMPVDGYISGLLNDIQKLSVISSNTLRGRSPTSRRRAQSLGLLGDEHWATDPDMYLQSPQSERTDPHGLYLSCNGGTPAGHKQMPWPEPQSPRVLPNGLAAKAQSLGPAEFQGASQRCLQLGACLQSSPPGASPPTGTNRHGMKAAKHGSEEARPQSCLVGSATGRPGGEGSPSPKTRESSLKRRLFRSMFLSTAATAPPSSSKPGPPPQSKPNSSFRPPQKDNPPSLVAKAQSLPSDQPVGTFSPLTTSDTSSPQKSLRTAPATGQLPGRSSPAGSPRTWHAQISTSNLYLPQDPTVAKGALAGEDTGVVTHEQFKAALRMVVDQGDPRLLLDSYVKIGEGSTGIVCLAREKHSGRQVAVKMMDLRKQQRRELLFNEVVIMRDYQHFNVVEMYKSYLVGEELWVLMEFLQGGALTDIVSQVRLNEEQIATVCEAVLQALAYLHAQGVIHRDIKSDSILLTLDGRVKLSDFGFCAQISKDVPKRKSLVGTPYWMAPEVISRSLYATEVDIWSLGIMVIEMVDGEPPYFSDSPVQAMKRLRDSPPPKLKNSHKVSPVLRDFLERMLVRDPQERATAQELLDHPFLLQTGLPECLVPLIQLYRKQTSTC
EEF2K (human), sequence (O00418 whole entry, looked up): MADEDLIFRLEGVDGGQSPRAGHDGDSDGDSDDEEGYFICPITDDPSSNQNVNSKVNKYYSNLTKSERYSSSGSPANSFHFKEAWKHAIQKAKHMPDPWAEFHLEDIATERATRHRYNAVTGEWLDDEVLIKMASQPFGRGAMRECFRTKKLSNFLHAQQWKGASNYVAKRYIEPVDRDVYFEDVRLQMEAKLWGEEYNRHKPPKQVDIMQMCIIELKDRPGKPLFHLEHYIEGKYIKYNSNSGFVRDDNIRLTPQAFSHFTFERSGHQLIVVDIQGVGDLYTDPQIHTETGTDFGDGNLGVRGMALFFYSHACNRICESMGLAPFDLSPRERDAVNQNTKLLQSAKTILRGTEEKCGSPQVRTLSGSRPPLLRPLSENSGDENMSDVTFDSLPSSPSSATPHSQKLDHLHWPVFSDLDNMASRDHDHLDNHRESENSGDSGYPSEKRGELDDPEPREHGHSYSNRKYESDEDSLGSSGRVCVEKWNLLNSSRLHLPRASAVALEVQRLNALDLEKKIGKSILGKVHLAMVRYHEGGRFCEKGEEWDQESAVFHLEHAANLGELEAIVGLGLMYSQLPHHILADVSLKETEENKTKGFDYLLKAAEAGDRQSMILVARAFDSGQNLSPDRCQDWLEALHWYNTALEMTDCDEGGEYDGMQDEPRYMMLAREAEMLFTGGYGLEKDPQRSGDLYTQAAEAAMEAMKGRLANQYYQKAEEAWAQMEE
MAP3K9 (human), sequence (P80192 whole entry, looked up): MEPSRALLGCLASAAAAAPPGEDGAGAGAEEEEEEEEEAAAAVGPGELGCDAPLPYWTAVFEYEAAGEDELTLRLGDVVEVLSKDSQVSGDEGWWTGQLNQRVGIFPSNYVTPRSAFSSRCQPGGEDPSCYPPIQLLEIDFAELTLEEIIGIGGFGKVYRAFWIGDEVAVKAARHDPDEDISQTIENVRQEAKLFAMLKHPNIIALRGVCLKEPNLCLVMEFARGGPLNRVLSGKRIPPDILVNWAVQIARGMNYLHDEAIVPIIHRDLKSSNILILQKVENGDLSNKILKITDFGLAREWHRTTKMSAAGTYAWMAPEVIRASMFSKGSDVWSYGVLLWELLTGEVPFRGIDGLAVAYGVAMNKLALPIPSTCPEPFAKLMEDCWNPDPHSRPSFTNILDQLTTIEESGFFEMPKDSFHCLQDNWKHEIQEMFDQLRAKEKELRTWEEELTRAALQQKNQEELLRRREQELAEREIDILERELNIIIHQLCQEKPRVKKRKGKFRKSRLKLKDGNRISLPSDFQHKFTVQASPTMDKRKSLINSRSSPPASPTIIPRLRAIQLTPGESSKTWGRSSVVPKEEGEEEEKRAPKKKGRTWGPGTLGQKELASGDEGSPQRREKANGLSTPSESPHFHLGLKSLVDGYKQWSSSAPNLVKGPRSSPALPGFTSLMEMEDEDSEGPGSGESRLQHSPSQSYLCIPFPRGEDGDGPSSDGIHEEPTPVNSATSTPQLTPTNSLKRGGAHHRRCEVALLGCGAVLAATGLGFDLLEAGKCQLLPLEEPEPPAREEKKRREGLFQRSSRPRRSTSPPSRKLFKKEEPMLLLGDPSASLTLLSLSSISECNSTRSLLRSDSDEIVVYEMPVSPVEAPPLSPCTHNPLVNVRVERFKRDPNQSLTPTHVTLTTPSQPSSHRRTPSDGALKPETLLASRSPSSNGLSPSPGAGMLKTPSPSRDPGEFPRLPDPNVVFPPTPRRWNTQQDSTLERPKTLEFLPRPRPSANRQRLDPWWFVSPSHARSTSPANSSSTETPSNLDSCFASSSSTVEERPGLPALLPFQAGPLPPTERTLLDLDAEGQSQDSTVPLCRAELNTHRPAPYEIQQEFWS

For O=C(N[C@@H](COc1ccc2[nH]c(=O)[nH]c2c1)c1ccccc1)c1cccn(Cc2ccc(F)c(F)c2)c1=O, which residual activity (MAP2K6 (human); compound 0.1 µM) is on record?
The residual activity was 94%.

What about the residual activity (MAP2K6 (human); compound 1.0 µM) of the same molecule?
The residual activity was 89%.

What about the residual activity (MAP2K6 (human); compound 10.0 µM) of the same molecule?
The residual activity was 108%.

And the residual activity (MARK2 (human); compound 0.1 µM)?
The residual activity was 105%.

What about the residual activity (MARK2 (human); compound 1.0 µM) of the same molecule?
The residual activity was 102%.

And the residual activity (MARK2 (human); compound 10.0 µM)?
Its residual activity is 88%.

And the residual activity (MAP3K9 (human); compound 0.1 µM)?
The residual activity was 119%.

What about the residual activity (MAP3K9 (human); compound 1.0 µM) of the same molecule?
Its residual activity is 102%.

What about the residual activity (MAP3K9 (human); compound 10.0 µM) of the same molecule?
Its residual activity is 50%.

What about the residual activity (EEF2K (human); compound 0.1 µM) of the same molecule?
The residual activity was 95%.

And the residual activity (EEF2K (human); compound 1.0 µM)?
Its residual activity is 103%.

What about the residual activity (EEF2K (human); compound 10.0 µM) of the same molecule?
The residual activity was 107%.

And the residual activity (PRKCZ (human); compound 0.1 µM)?
Its residual activity is 104%.

And the residual activity (PRKCZ (human); compound 1.0 µM)?
Its residual activity is 106%.

And the residual activity (PRKCZ (human); compound 10.0 µM)?
The residual activity was 88%.

What about the residual activity (AURKA (human); compound 0.1 µM) of the same molecule?
Its residual activity is 110%.

And the residual activity (AURKA (human); compound 1.0 µM)?
The residual activity was 110%.

What about the residual activity (AURKA (human); compound 10.0 µM) of the same molecule?
Its residual activity is 103%.

What about the residual activity (NTRK1 (human); compound 0.1 µM) of the same molecule?
The residual activity was 113%.

And the residual activity (NTRK1 (human); compound 1.0 µM)?
Its residual activity is 98%.

And the residual activity (NTRK1 (human); compound 10.0 µM)?
The residual activity was 78%.

And the residual activity (BRSK1 (human); compound 0.1 µM)?
The residual activity was 118%.

What about the residual activity (BRSK1 (human); compound 1.0 µM) of the same molecule?
Its residual activity is 102%.

And the residual activity (BRSK1 (human); compound 10.0 µM)?
Its residual activity is 92%.

What about the residual activity (NUAK1 (human); compound 0.1 µM) of the same molecule?
Its residual activity is 115%.

What about the residual activity (NUAK1 (human); compound 1.0 µM) of the same molecule?
The residual activity was 107%.

What about the residual activity (NUAK1 (human); compound 10.0 µM) of the same molecule?
Its residual activity is 98%.

And the residual activity (IRAK4 (human))?
Its residual activity is 110%.

What about the residual activity (MAPK12 (human); compound 0.1 µM) of the same molecule?
The residual activity was 98%.

And the residual activity (MAPK12 (human); compound 1.0 µM)?
Its residual activity is 110%.

What about the residual activity (MAPK12 (human); compound 10.0 µM) of the same molecule?
Its residual activity is 105%.

What about the residual activity (DYRK2 (human); compound 0.1 µM) of the same molecule?
The residual activity was 110%.

And the residual activity (DYRK2 (human); compound 1.0 µM)?
The residual activity was 101%.

What about the residual activity (DYRK2 (human); compound 10.0 µM) of the same molecule?
The residual activity was 83%.

And the residual activity (MAPKAPK2 (human); compound 0.1 µM)?
The residual activity was 99%.

And the residual activity (MAPKAPK2 (human); compound 1.0 µM)?
Its residual activity is 101%.

What about the residual activity (MAPKAPK2 (human); compound 10.0 µM) of the same molecule?
The residual activity was 90%.

And the residual activity (EPHB3 (human); compound 0.1 µM)?
The residual activity was 114%.

And the residual activity (EPHB3 (human); compound 1.0 µM)?
Its residual activity is 119%.

And the residual activity (EPHB3 (human); compound 10.0 µM)?
Its residual activity is 113%.

What about the residual activity (MAPK9 (human); compound 0.1 µM) of the same molecule?
The residual activity was 93%.

And the residual activity (MAPK9 (human); compound 1.0 µM)?
The residual activity was 97%.

And the residual activity (MAPK9 (human); compound 10.0 µM)?
The residual activity was 95%.

What about the residual activity (PAK6 (human); compound 0.1 µM) of the same molecule?
Its residual activity is 102%.

And the residual activity (PAK6 (human); compound 1.0 µM)?
Its residual activity is 102%.

What about the residual activity (PAK6 (human); compound 10.0 µM) of the same molecule?
The residual activity was 89%.

And the residual activity (PAK4 (human); compound 0.1 µM)?
Its residual activity is 102%.

And the residual activity (PAK4 (human); compound 1.0 µM)?
The residual activity was 101%.

What about the residual activity (PAK4 (human); compound 10.0 µM) of the same molecule?
Its residual activity is 67%.

And the residual activity (MAP2K2 (human); compound 0.1 µM)?
The residual activity was 121%.

And the residual activity (MAP2K2 (human); compound 1.0 µM)?
Its residual activity is 124%.

What about the residual activity (MAP2K2 (human); compound 10.0 µM) of the same molecule?
The residual activity was 135%.

And the residual activity (MAP3K1 (human); compound 0.1 µM)?
Its residual activity is 110%.

What about the residual activity (MAP3K1 (human); compound 1.0 µM) of the same molecule?
Its residual activity is 114%.

And the residual activity (MAP3K1 (human); compound 10.0 µM)?
Its residual activity is 112%.

What about the residual activity (MARK1 (human)) of the same molecule?
Its residual activity is 107%.

What about the residual activity ([1]; compound 0.1 µM) of the same molecule?
The residual activity was 102%.

And the residual activity ([1]; compound 1.0 µM)?
Its residual activity is 100%.

What about the residual activity ([1]; compound 10.0 µM) of the same molecule?
Its residual activity is 93%.

What about the residual activity (MARK4 (human); compound 0.1 µM) of the same molecule?
Its residual activity is 150%.

And the residual activity (MARK4 (human); compound 1.0 µM)?
Its residual activity is 143%.

What about the residual activity (MARK4 (human); compound 10.0 µM) of the same molecule?
Its residual activity is 83%.

What about the residual activity (MAP3K7 TAB1 (human); compound 0.1 µM) of the same molecule?
The residual activity was 97%.

And the residual activity (MAP3K7 TAB1 (human); compound 1.0 µM)?
Its residual activity is 103%.

And the residual activity (MAP3K7 TAB1 (human); compound 10.0 µM)?
The residual activity was 54%.

And the residual activity ([2]; compound 0.1 µM)?
The residual activity was 96%.

And the residual activity ([2]; compound 1.0 µM)?
The residual activity was 97%.

And the residual activity ([2]; compound 10.0 µM)?
The residual activity was 90%.

What about the residual activity (PKN2 (human); compound 0.1 µM) of the same molecule?
The residual activity was 108%.

What about the residual activity (PKN2 (human); compound 1.0 µM) of the same molecule?
Its residual activity is 113%.

What about the residual activity (PKN2 (human); compound 10.0 µM) of the same molecule?
Its residual activity is 103%.

And the residual activity (PIM1 (human); compound 0.1 µM)?
Its residual activity is 101%.

What about the residual activity (PIM1 (human); compound 1.0 µM) of the same molecule?
Its residual activity is 105%.

And the residual activity (PIM1 (human); compound 10.0 µM)?
The residual activity was 76%.

And the residual activity (MAP3K5 (human); compound 0.1 µM)?
The residual activity was 110%.

What about the residual activity (MAP3K5 (human); compound 1.0 µM) of the same molecule?
Its residual activity is 105%.

What about the residual activity (MAP3K5 (human); compound 10.0 µM) of the same molecule?
The residual activity was 92%.

What about the residual activity (GSK3B (human); compound 0.1 µM) of the same molecule?
The residual activity was 97%.

What about the residual activity (GSK3B (human); compound 1.0 µM) of the same molecule?
Its residual activity is 96%.

What about the residual activity (GSK3B (human); compound 10.0 µM) of the same molecule?
The residual activity was 64%.

And the residual activity (PRKCA (human); compound 0.1 µM)?
The residual activity was 99%.

What about the residual activity (PRKCA (human); compound 1.0 µM) of the same molecule?
Its residual activity is 91%.

What about the residual activity (PRKCA (human); compound 10.0 µM) of the same molecule?
Its residual activity is 96%.

What about the residual activity (MAP3K11 (human); compound 0.1 µM) of the same molecule?
The residual activity was 104%.

What about the residual activity (MAP3K11 (human); compound 1.0 µM) of the same molecule?
Its residual activity is 97%.

What about the residual activity (MAP3K11 (human); compound 10.0 µM) of the same molecule?
Its residual activity is 46%.

What about the residual activity (INSR (human); compound 0.1 µM) of the same molecule?
Its residual activity is 99%.

And the residual activity (INSR (human); compound 1.0 µM)?
Its residual activity is 95%.

And the residual activity (INSR (human); compound 10.0 µM)?
Its residual activity is 93%.

What about the residual activity (MST4 (human); compound 0.1 µM) of the same molecule?
The residual activity was 101%.

And the residual activity (MST4 (human); compound 1.0 µM)?
Its residual activity is 117%.

What about the residual activity (MST4 (human); compound 10.0 µM) of the same molecule?
Its residual activity is 86%.

And the residual activity (ERBB4 (human); compound 0.1 µM)?
Its residual activity is 102%.

And the residual activity (ERBB4 (human); compound 1.0 µM)?
Its residual activity is 100%.

What about the residual activity (ERBB4 (human); compound 10.0 µM) of the same molecule?
Its residual activity is 98%.

What about the residual activity (HIPK3 (human); compound 0.1 µM) of the same molecule?
Its residual activity is 99%.

And the residual activity (HIPK3 (human); compound 1.0 µM)?
Its residual activity is 108%.

What about the residual activity (HIPK3 (human); compound 10.0 µM) of the same molecule?
The residual activity was 91%.

What about the residual activity (EPHA2 (human); compound 1.0 µM) of the same molecule?
Its residual activity is 102%.

And the residual activity (EPHA2 (human); compound 10.0 µM)?
Its residual activity is 86%.

And the residual activity (MELK (human); compound 0.1 µM)?
The residual activity was 97%.

And the residual activity (MELK (human); compound 1.0 µM)?
Its residual activity is 110%.

And the residual activity (MELK (human); compound 10.0 µM)?
Its residual activity is 99%.
